Source: patent publication US20060089335A1, “Compositions and methods for enhancing cognitive function and synaptic plasticity” (priority 2003, published 2006)
Where “and” joins values, the source holds several entries; their conditions need not be identical. Equal values may be shown once. Entries after “also recorded” stand apart in the source; their conditions may differ.

Key:
[1] = system: presynaptic terminals of cultured hippocampal neurons; test: TBS-induced presynaptic plasticity measured by FM 1-43 dye uptake in hippocampal cultures; format: cell-based, rat
[2] = system: NMDAR; test: voltage-dependence of NMDAR Mg^2+ block, NMDA currents evoked by glutamate iontophoresis; format: cell-based, rat
Description: Analysis of voltage-dependence of NMDAR Mg^2+ block. For studying the voltage-dependence of NMDAR Mg^2+ block, NMDA currents were evoked by local application of glutamate using the high-speed iontophoresis technique (Murnick et al., 2002). The current traces for each cell were normalized to their value at +40 mV membrane potential. The voltage dependency of NMDA currents was modeled using the Woodhull function (Woodhull, 1973). The NMDA channel conductance in the presence and absence of Mg^2+ was related according to the relationship: [formula] • where KMg is the voltage-independent affinity of Mg^2+ for the channel (0 mV membrane potential), δ is the electrical distance of the Mg^2+ binding site in the membrane field, E is membrane potential, and z is the valence of the blocking ion. RT/F was 25.4 mV (21° C.).
Although the biophysics of Mg^2+ block have been studied extensively (Mayer et al., 1984; Nowak et al., 1984; Jahr and Stevens, 1990), we wished to determine precisely the behavior of the Mg^2+ block at near-physiologic concentrations. […] We evoked NMDA currents by iontophoretic application of glutamate to a putative single bouton identified by FM 1-43 labeling and recorded under whole cell patch clamp in the presence of the AMPAR blocker, NBQX (10 μM). […] (Renger et al., 2001).

[3] = system: NMDA receptors at single spine; test: calcium imaging and NMDA currents at single spines; format: cell-based, rat
[4] = rat, in vivo
Method: Determination of [Mg^++] in CSF. Total Mg^++ levels in CSF in control and Mg^++-treated rats were determined by a colorimetric method with xylidyl blue (Anilytics Incorporated, MD) (Thomas, L. (1998). Clinical Laboratory diagnostics. 1st ed. Francfurt: TH-Books Verlagsgesellschaft, 231-41.)
Behavior test: Novel object recognition. The subjects were 20 experimentally naive, female, Sprague-Dawley rats (Charles River), 1 year old at the beginning of the experiment. They were housed two per cage with continuous access to food and water under a 12:12 light-dark cycle, with light onset at 8:00 a.m. Rats in the Mg^++-treated group received drinking water containing 6 mg/kg/day MgCl2 for 4 months before experiments.
We noted that the extracellular concentration Mg^+ in the CSF of a normal human brain is about 1.2 mM, the same concentration at which we obtained the maximum synaptic plasticity in vitro (FIG. 8B). We tested whether increasing Mg^++ concentration might also lead to enhanced synaptic plasticity in rats in vivo. Since Mg^++ is an essential mineral, normally obtained only by ingestion, we added a low quantity of Mg^++ (˜6 mg/kg/day) to drinking water in attempt to raise CSF Mg^++ concentration. This amount was proportional to that recommended by the FDA as a daily food supplement for humans. Two groups of adult Sprague-Dawley rats (8 months) were used as experimental populations. […]

[5] = system: NR1; test: quantitative Western blotting of hippocampal homogenate; conditions: rat, in vivo
Method: (§1) Quantitative Western blotting. Samples of hippocampal homogenate (10 ug/sample) were resolved on polyacrylamide gels, transferred to PVDF, and probed with anti-NR1 (Chemicon), NR2A (Upstate) or NR2B (Santa Cruz Biotech), GluR1 (Chemicon), Synapsin1 (American Qualex), or PSD-95 (Upstate) antibody followed by the appropriate secondary antibody coupled to horseradish peroxidase (1:10,000, Santa Cruz Biotech) in Tris-buffered saline (pH 7.3) containing 5% dry milk and 0.1% Tween (BioRad). Visualization of immunoreactive bands was achieved by enhanced chemiluminescence (Perkin Elmer Biosciences) and captured on autoradiography film (Kodak Scientific). Standard curves, in which the amount of protein was varied systematically, were constructed to establish that we operated within the linear range of the chemiluminescence detection method. In addition, each immunoblot was exposed to autoradiography film multiple times (average 7; minimum 5) for varying duration to make sure we operated in the linear range of the film for each experiment. Digital images, produced by scanning films on a Epson 3200 Scanner (Epson) with Epson Scan Software (Epson), were quantified using GelPro Analyzer 3.1 software. The integrated optical density (IOD) of each immunoreactive band from hippocampal samples relative to baseline measured immediately above and below the band in the same lane, and normalized by the actin or neurofilament band also in the same lane. Group data (eight animals per group) are represented as the mean+/−SEM of the IOD of samples.

[6] = system: NR2A; test: as above; conditions: rat, in vivo
Method: as §1

[7] = system: synapsin1; test: as above; conditions: rat, in vivo
Method: as §1

[8] = system: postsynaptic locations of cultured hippocampal neurons; test: postsynaptic evoked current response to iontophoretic glutamate (AMPA-R insertion); format: cell-based, rat
Description: These were generally as described in the preceding examples. Glutamatergic iontophoresis was perfomed as described [Murnick 2000].
Since we wished to correlate the above pre-synaptic findings to the plasticity of single or small clusters of postsynaptic locations, this ruled out traditional double-patch plasticity experiments in which heterogeneous populations of connections are studied. Such studies also usually confound pre-synaptic and postsynaptic effects. For this purpose, we developed a technique of high-temporal and spatial resolution glutamatergic iontophoresis that allows us to stimulate single or small clusters of postsynaptic locations (resolution ˜2 μm, 1 ms; [Murnick 2000]).
To determine whether a decrease in overall activity of a neural network leads to increased plasticity (i.e., an increase in synaptic strength in response to a pattern of stimulation) of postsynaptic locations, we assessed the effect of treatment with Mg^++ on the ability of postsynaptic locations to respond to glutamate. As described above, Mg^++ blocks the NMDA receptor channel at resting membrane potential, so Mg^++ treatment reduces the overall activity level of the neural network. As also described above, increases in postsynaptic intracellular Ca^++ stimulated by activation of NMDA receptors leads to recruitment of AMPA receptors and their insertion into the postsynaptic membrane. […]

[9] = rat, in vivo; remark: listed apart in the source

In the case of `[Mg+2]` [Mg^++], the F2/F1 [1] is reported as 2.3±0.1, the N2/N1 [1] is reported as 2.1±0.1 and the “Pr increase after TBS” value [1] is reported as 2.3 fold. The “enhancement of synaptic plasticity” value [1] was about 2 fold, the “increase in number of detectable FM puncta after TBS” value [1] was 2.1 fold and the “increase in total presynaptic strength after TBS” value [1] was 5.5 fold. The “increase in total presynaptic strength after induction” value [1] was 3.9 fold, the “increase of plasticity of presynaptic terminals (S2/S1)” value [1] was 2.4 fold and the “increase of synaptic strength at optimum concentration” value [1] was “up to approximately five-fold”. For the same compound, the “optimal concentration for plasticity (maximal potentiability)” value [1] was 1.2 mM, the “plasticity of presynaptic terminals after partial block of Ca flux” value [1] was “significant increases of plasticity” and the “plasticity under long term treatments” value [1] was “retain high plasticity persistently”. For the same compound, the “time for which potentiation was stable” value [1] was “at least 1.5 hours”, the “effect on NMDA current” value [2] was “had no effect” and the “reduction (attenuation) of NMDA current” value [2] was about 60%. The “reduction of EPSCNMDA amplitude” value [2] was 50%, the “size of outward EPSCNMDA” value [2] was “remained relatively unchanged” and the “reduction of Ca^2+ influx (ΔF/F)” value [3] was 57±5% and 54±7%. For the same compound, the “reduction of NMDA currents (EPSCNMDA amplitude)” value [3] was 54±7% and 57±5%, the “increase in CSF [Mg]” value [4] was “approximately 0.13 mM” and the “change of NR1” value [5] was “no significant changes”. The “change of NR2A” value [6] was “no significant changes”, the “change of synapsin1” value [7] was “no significant changes” and the “postsynaptic evoked current response to glutamate (AMPA-R insertion)” value [8] was “showed significant levels of AMPA-R insertion; also recorded: increased current amplitude over time”. For the same compound, the “general status of the rats (body weight, mobility)” value [9] was “did not observe any significant change in the general status”.
